Laboratory results taken from PubChem BioAssay AID2305 (GlaxoSmithKline (GSK), 2010).

System: P. falciparum 3D7 growth, pLDH absorbance
Experiment: blood-stage malaria parasite growth potency – strain 3D7, dose response (AID 2305)

Compound	IC50
COc1ccc(-c2cc(C(=O)N[C@@H](Cc3ccccc3)C(=O)NCCN3CCCCC3)ccc2O)cc1	790 nM
CC(C)c1cc2c(ccc3nc(N)nc(N)c32)[nH]1	40 nM
C[C@H](Cc1ccc(C[C@@H](C)NC[C@H](O)c2cccc(Cl)c2)cc1)NC[C@H](O)COc1ccccc1	1170 nM
COc1ccc(C=NNc2cc(C)nc3ccc(C)cc23)c2ccccc12	860 nM
COc1ccc(NC(=O)c2ccc(-c3ccc(-c4cccnc4)cc3)c(C)c2)cc1OCCN(C)C	200 nM
N=c1n(CCN2CCCCC2)c2ccccc2n1CC(O)c1ccc(Cl)c(Cl)c1 (stereo not drawn)	320 nM
CCCCCCn1c(Sc2ccc(C#N)c([N+](=O)[O-])c2)nnc1-c1ccc(N(C)C)cc1	1070 nM
O=C(Nc1cccc(C(F)(F)F)c1)c1ccc(S(=O)(=O)NCC2CCCN(CC3CCCCC3)C2)cc1 (stereo not drawn)	900 nM
CNc1cc(-c2ccc3ccnc(N)c3c2)nc(N)n1	120 nM
CN(C)C(=O)CCCn1c(CNCCCNc2cc(=O)c3ccccc3[nH]2)cc2c(Cl)cc(Cl)cc21	1190 nM
COc1ccc(N2CCc3c(-c4cccc5cnccc45)cc(C)nc32)c(C)c1	660 nM
Cc1cccc2[nH]c(-c3ccc(-c4ccc(CN5CCN(c6ccncc6)CC5)cc4)cc3)nc12	160 nM
O=C(Nc1ccccc1F)N(CCCn1ccnc1)Cc1csc(-c2ccc(CNCc3ccccc3)cc2)n1	840 nM
OC(CNc1ccnc(Nc2ccc(Cl)cc2)n1)c1ccccc1C(F)(F)F (stereo not drawn)	790 nM
COC(=O)c1ccc(CC(C)NCC(O)c2cccc(I)c2)cc1 (stereo not drawn)	1320 nM
CC(=O)Nc1cc(C(=O)Nc2cccc(-c3cccc(-c4nc5ccc(C(F)(F)F)cc5[nH]4)c3)c2)ccc1C	220 nM
Cc1cc(NCCCN2CCCC2=O)n2c(nc3ccccc32)c1C#N	860 nM
Cc1onc(-c2c(F)cccc2Cl)c1C(=O)Nc1ccccc1I	950 nM
Cc1noc(-c2ccccc2)c1NC(=O)NC1CCN(CCCCCNC(=O)/C=C/c2ccc(Cl)c(Cl)c2)CC1	990 nM
CCCCCCNC(=O)C1Cc2c([nH]c3ccc(C)cc23)C2(CCN(Cc3ccccc3)CC2)N1 (stereo not drawn)	980 nM
O=C(NCCc1ccc(Cl)c(Cl)c1)C1CCCN(C(=O)c2ccc(O)c(-c3ccc(Cl)c(Cl)c3)c2)C1 (stereo not drawn)	780 nM
Fc1ccc2nc(-c3cccc(-c4cccc(CNCc5ccccc5)c4)c3)[nH]c2c1	280 nM
O=C(NCCN1CCOCC1)c1csc(C2CCCN(C(=O)c3ccc(O)c(-c4cc(Cl)cc(Cl)c4)c3)C2)n1 (stereo not drawn)	1030 nM
COc1ccc(-c2nc3cccnc3n2CC(=O)Nc2c(C)cc(C)cc2C)c(OC)c1	930 nM

Compound	IC50
O=C(Nc1ccc(Cl)c(Cl)c1)Nc1ccccc1N1CCNCC1	710 nM
Cc1ccc2nc3c(cc(C(=O)NCc4ccccc4)c(=N)n3CCCn3ccnc3)c(=O)n2c1	990 nM
CC(C(=O)N1CCCC1)N1CCN(S(=O)(=O)c2ccc(C(C)(C)C)cc2)CC1 (stereo not drawn)	640 nM
CN(C)c1cccc2c1nc(-c1ccco1)n2CC1CCCN1 (stereo not drawn)	970 nM
COc1ccc2nccc([C@@H](O)CN3CCC(NCc4ccc5c(c4)N(C)C(=O)CO5)CC3)c2c1	750 nM
COc1cc(C(=O)Nc2cccc(-c3cn4ccc(C)cc4n3)c2)cc(OC)c1OC	760 nM
CC(=O)c1ccc(S(=O)(=O)N2CCC(C(=O)Nc3ccccc3N3CCCC3)CC2)cc1	830 nM
CCOC(=O)COc1cccc(CNc2ccc3nc(N)nc(N)c3c2)c1	410 nM
C=C[C@]1(C)C[C@@H](OC(=O)CS[C@H]2CN3CC[C@H]2C3)[C@@]2(C)C3C(=O)CC[C@@]3(CC[C@H]2C)[C@@H](C)[C@@H]1O (stereo partly drawn)	690 nM
CCc1c[nH]c2c(N3CCCC3=O)cc(C(=O)N[C@@H](Cc3ccccc3)[C@H](O)CNC(C)(C)CCCC(C)C)cc12	510 nM
CC1CN(Cc2cccc(F)c2)CCN1c1ccc(NC(=O)c2cccs2)cc1 (stereo not drawn)	450 nM
CCCN(c1ccc(O)c(CN2CCCCC2)c1)c1ccc([N+](=O)[O-])cn1	800 nM
CC(=O)c1ccc(NC(=O)NNC(=O)c2ccc(CCN3CCC(c4nc(COCC(F)(F)F)c(-c5ccc(F)cc5)o4)CC3)cc2)cc1	830 nM
CN(C)CCCOc1ccc(CN2CCC(c3c[nH]c4ccc(NCC5CCCCC5)cc34)CC2)cc1	680 nM
c1ccc2c(C3CCN(CCCCOc4ccc5c(c4)CCN(CC4CC4)CC5)CC3)c[nH]c2c1	980 nM
CCN(CCNS(C)(=O)=O)c1ccc(N)c(C)c1	880 nM
COc1cc(F)c2nccc([C@@H](O)CN3CCC(NCc4ccc5c(n4)NC(=O)CS5)CC3)c2c1	560 nM
CN1CCN(c2ccc3nc(-c4ccc5nc(-c6ccc(O)cc6)[nH]c5c4)[nH]c3c2)CC1	120 nM
CC(C)Cn1cc(C2CCN(CCN3CCC(CNC(=O)c4ccc(NC(=O)c5cc(Cl)cc(Cl)c5)cc4)CC3)CC2)c2ccccc21	690 nM
CN1CCN(c2ccc3nccc(CCN4CCC(NCc5ccc6c(n5)NC(=O)CO6)CC4)c3n2)CC1	820 nM
O=C(Nc1ccc(-c2ccc(-c3nc4ccccc4[nH]3)s2)cc1)Nc1ccc(F)c(F)c1F	190 nM
Cc1[nH]c(C)c(-c2ccc(-c3ccc(OC(F)(F)F)cc3)cc2)c(=O)c1Cl	40 nM
CC[C@H]1CN2CC[C@H]1C[C@H]2[C@H](O)c1cc(-c2ccc(Cl)c(Cl)c2)nc2ccc(OC)cc12	120 nM
OC(CNCc1cccc(Oc2ccc(Cl)cc2)c1)c1cc(C(F)(F)F)cc(C(F)(F)F)c1 (stereo not drawn)	260 nM
